The subject of one data set is VCaP. In words: Antiproliferative activity against human VCaP cells assessed as cell growth inhibition incubated for 4 days by celtiter-glo luminescent assay. Conditions: 96 h.
A short description of data set [1]: Drug concentration in rat plasma at 3 mg/kg, po measured at 5 mins by LC-MS/MS analysis. Format: ADME, organism-based.
The nature of data set [2]: Volume of distribution at steady state in Sprague-Dawley rat at 1 mg/kg, iv measured upto 24 hrs by LC-MS/MS analysis. The class given is ADME, organism-based. Conditions: in vivo.
A short description of data set [3]: Metabolic stability in rat liver microsome assessed as half life measured upto 60 mins in presence of NADPH by LC-MS/MS analysis. Format: ADME. The conditions noted are these: liver microsomes. (Liver microsomes are a subcellular fraction often used to study metabolism.)
Data set [4] can be described thus: Metabolic stability in human liver microsome assessed as half life measured upto 60 mins in presence of NADPH by LC-MS/MS analysis. The class given is ADME. Conditions: liver microsomes.
Data set [5] in a line: Drug concentration in rat plasma at 3 mg/kg, po measured at 2 hrs by LC-MS/MS analysis. Format: ADME, organism-based.
For data set [6], the target named is Protein cereblon/Histone acetyltransferase p300 (Homo sapiens, UniProt Q09472+Q96SW2). The data set can be described thus: PROTAC activity at p300/CRBN in human U2OS cells assessed as induction of p300 degradation incubated for 24 hrs by Nan-glo HiBiT lytic assay. Format: cell-based. (HiBiT is a short tag that completes a luciferase, so light tracks the accessible tagged protein.)

Data set [7] in a line: Drug concentration in rat plasma at 3 mg/kg, po measured at 1 hr by LC-MS/MS analysis. The class given is ADME, organism-based.
Data set [8] in a line: AUC (0 to t) in Sprague-Dawley rat at 1 mg/kg, iv measured upto 24 hrs by LC-MS/MS analysis. Format: ADME, organism-based. Conditions: in vivo.
Data set [9] can be described thus: Drug concentration in rat plasma at 3 mg/kg, po measured at 30 mins by LC-MS/MS analysis. Format: ADME, organism-based.
Data set [10] can be described thus: Drug concentration in rat plasma at 3 mg/kg, po measured at 6 hrs by LC-MS/MS analysis. Format: ADME, organism-based.
Data set [11] has as its target Protein cereblon/CREB-binding protein (Homo sapiens, UniProt Q92793+Q96SW2). In words: PROTAC activity at CBP/CRBN in human U2OS cells assessed as induction of CBP degradation incubated for 24 hrs by Nan-glo HiBiT lytic assay. Format: cell-based.
The nature of data set [12]: Half life in Sprague-Dawley rat at 1 mg/kg, iv measured upto 24 hrs by LC-MS/MS analysis. Format: ADME, organism-based. The conditions noted are these: in vivo.
Data set [13] can be described thus: Drug concentration in rat plasma at 3 mg/kg, po measured at 15 mins by LC-MS/MS analysis. Format: ADME, organism-based.
Data set [14] can be described thus: Drug concentration in rat plasma at 3 mg/kg, po measured at 4 hrs by LC-MS/MS analysis. Format: ADME, organism-based.
Data set [15] is described as follows: Metabolic stability in mouse liver microsome assessed as half life measured upto 60 mins in presence of NADPH by LC-MS/MS analysis. The class given is ADME. The conditions noted are these: liver microsomes.
Another data set relates to CWR22R. The data set can be described thus: Antiproliferative activity against human 22Rv1 cells assessed as cell growth inhibition incubated for 4 days by celtiter-glo luminescent assay. Conditions: 22Rv1, 96 h.
In data set [16] the target is Bromodomain-containing protein 4 (Homo sapiens, UniProt O60885). The data set can be described thus: Binding affinity to BRD4 (unknown origin) assessed as dissociation constant by ITC analysis. Background: Isothermal titration calorimetry measures the heat released or taken up as one component is titrated into another.
Another data set addresses CREB-binding protein (Homo sapiens, UniProt Q92793). The data set can be described thus: Binding affinity to CBP (unknown origin) assessed as dissociation constant by ITC analysis.
Data set [17] has as its target Histone acetyltransferase p300 (Homo sapiens, UniProt Q09472). In words: Binding affinity to p300 (unknown origin) assessed as dissociation constant by ITC analysis.
The nature of data set [18]: Drug concentration in rat plasma at 3 mg/kg, po measured at 24 hrs by LC-MS/MS analysis. The class given is ADME, organism-based.
The test system of another data set is LNCaP. The data set can be described thus: Antiproliferative activity against human LNCaP cells assessed as cell growth inhibition incubated for 4 days by celtiter-glo luminescent assay. The conditions noted are these: 96 h.

Bounds are passed on as bounds.

22 molecules from ChEMBL document CHEMBL5543112, “Discovery of CBPD-268 as an Exceptionally Potent and Orally Efficacious CBP/p300 PROTAC Degrader Capable of Achieving Tumor Regression” (J Med Chem, 2024) can be followed below.

Usually IC50 stands for the concentration needed to halve the response being measured. As a reminder, the Vdss is a proportionality between amount in the body and measured concentration, not a real space. Higher therefore signals extensive tissue distribution. A word on the half-life: it is the time in which the quantity being followed falls by half. A word on the DC50: it is the concentration at which degradation of the target reaches its halfway point. What is called AUC(0-t) is the area under the concentration-time curve up to a stated or last time point. Read a high AUC(0-t) as high exposure. The Kd is the constant that tells how readily two partners part at equilibrium.

Sequence of Protein cereblon/Histone acetyltransferase p300 (Q09472 whole entry): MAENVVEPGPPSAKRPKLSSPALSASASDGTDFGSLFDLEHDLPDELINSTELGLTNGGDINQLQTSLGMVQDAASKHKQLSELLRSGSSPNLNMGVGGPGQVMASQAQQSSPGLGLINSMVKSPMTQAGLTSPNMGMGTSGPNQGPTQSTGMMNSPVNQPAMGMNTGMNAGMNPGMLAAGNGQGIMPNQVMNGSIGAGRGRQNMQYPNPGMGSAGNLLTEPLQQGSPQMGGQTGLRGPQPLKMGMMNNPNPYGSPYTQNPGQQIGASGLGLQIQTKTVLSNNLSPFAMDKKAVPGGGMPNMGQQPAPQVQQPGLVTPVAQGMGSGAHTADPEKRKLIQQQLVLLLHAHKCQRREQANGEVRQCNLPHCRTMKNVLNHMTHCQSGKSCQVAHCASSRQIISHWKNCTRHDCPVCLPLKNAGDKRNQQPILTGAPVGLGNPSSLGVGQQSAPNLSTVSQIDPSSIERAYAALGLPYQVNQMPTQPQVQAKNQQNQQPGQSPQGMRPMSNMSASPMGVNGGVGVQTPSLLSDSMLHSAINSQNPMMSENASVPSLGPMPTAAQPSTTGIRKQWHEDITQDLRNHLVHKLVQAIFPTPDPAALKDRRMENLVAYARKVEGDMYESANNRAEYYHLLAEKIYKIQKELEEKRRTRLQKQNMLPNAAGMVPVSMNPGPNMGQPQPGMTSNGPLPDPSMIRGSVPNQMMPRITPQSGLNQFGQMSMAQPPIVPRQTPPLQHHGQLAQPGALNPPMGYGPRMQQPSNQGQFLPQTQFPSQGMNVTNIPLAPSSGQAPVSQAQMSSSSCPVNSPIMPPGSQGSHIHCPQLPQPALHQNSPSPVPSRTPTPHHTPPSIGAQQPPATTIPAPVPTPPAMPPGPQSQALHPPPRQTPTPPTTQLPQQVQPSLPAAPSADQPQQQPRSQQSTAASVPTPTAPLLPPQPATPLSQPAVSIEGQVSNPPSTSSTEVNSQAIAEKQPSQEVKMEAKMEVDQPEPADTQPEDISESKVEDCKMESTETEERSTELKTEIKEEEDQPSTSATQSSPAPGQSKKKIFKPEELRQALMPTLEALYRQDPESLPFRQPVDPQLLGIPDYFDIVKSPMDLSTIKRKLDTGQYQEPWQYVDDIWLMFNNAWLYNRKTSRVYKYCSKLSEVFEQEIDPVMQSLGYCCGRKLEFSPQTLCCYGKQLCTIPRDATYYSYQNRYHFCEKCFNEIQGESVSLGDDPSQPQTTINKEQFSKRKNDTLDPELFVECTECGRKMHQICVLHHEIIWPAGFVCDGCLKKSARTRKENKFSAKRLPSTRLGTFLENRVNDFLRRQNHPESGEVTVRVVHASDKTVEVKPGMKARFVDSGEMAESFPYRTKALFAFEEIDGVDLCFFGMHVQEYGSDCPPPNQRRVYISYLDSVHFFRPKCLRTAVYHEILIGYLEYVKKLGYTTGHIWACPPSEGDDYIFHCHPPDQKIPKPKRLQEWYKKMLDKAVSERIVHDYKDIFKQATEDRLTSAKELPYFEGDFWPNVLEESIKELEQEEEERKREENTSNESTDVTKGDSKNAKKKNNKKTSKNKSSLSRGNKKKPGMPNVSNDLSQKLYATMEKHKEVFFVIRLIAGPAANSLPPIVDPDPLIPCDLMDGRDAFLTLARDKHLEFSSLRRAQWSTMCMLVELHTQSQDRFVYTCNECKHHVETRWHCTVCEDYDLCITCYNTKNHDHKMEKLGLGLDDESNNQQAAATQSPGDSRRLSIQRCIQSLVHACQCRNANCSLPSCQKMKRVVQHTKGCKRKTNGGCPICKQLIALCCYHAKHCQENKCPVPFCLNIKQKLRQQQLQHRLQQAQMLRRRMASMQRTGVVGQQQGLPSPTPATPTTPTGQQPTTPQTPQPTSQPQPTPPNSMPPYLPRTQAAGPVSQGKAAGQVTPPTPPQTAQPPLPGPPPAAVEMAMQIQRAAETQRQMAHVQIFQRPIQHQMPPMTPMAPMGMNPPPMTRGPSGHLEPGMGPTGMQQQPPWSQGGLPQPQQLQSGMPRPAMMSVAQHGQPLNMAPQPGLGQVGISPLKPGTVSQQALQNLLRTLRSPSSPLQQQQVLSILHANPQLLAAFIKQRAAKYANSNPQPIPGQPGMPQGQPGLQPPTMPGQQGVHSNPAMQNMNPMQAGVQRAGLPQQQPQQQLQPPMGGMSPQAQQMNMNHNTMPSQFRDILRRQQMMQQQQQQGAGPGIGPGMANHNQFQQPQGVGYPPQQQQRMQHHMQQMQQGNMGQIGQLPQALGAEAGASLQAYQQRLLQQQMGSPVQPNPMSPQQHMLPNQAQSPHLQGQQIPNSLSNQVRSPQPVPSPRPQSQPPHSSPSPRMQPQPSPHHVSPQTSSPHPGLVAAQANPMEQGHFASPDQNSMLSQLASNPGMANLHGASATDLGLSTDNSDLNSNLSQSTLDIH
Sequence of Protein cereblon/Histone acetyltransferase p300 (Q96SW2 whole entry): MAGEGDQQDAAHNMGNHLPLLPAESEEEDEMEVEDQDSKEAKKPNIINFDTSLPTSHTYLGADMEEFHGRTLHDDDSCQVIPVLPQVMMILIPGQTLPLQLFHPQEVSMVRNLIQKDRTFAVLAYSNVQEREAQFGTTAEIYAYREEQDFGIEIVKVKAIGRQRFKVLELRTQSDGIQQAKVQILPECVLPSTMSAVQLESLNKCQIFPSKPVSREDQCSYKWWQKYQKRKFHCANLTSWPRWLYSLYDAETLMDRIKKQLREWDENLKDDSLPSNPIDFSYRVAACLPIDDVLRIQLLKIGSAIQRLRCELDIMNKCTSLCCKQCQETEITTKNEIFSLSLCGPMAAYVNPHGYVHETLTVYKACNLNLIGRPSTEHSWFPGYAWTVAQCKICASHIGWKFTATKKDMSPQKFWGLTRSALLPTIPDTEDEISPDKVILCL
Sequence of Histone acetyltransferase p300 (Q09472 whole entry): as the sequence (Q09472 whole entry) above

Turning to `CO[C@H]1CC[C@H](n2c([C@@H]3CCCC(=O)N3c3ccc(F)c(F)c3)nc3cc(-c4c(C)noc4C)ccc32)CC1` [INOBRODIB], in the data set on VCaP, the IC50 amounted to 195 nM.

In turn, `CC(=O)N1CCc2c(c(N3CCCc4ccc(C(F)F)cc43)nn2C2CCN(C(=O)CN3Cc4cc5c(cc4C3)C(=O)N(C3CCC(=O)NC3=O)C5=O)CC2)C1` (configuration not stated) gave a concentration at 5 min in data set [1] of 1 ng/mL. For the same molecule, the Vdss in data set [2] worked out at 1.7 L/kg. Besides, the half-life in [3], in [4] and in data set [15] was above 1 h throughout. The molecule also yielded a concentration at 2 h in [5] of 0.4 ng/mL. For the same molecule, the DC50 in [6] is 204 nM; in [11], 519 nM. The concentration at 1 h in data set [7] came out at 0.3 ng/mL. In data set [8], this molecule came in with an AUC(0-t) at 24 h of 88.7 ng·h/mL. The concentration at 0.5 h in data set [9] was found to be 0.4 ng/mL. In [10], this molecule gave a concentration at 6 h of 0.9 ng/mL. Besides, in data set [12], the t1/2 was 1.1 h. Also, in [13], the concentration at 0.25 h was found to be 0.5 ng/mL. This molecule also registered a concentration at 4 h in data set [14] of 0.7 ng/mL.

Consider `CC(=O)N1CCc2c(c(N3CCCc4cc(C5CC5)c(C(F)F)cc43)nn2C2CCN(C(=O)CN3Cc4cc5c(cc4C3)C(=O)N(C3CCC(=O)NC3=O)C5=O)CC2)C1` (configuration not stated), for which the 50% degradation concentration (DC50) in data set [6] came out at 29 nM; in [11] it was 52 nM.

On to `CC(=O)N1CCc2c(c(N3CCCc4cc(-c5cnn(C)c5)c(C(F)F)cc43)nn2C2CCN(C(=O)N3Cc4cc5c(cc4C3)C(=O)N(C3CCC(=O)NC3=O)C5=O)CC2)C1` (configuration not stated), for which the DC50 in [6] and in [11] was above 1000 nM each time.

With `CC(=O)N1CCc2c(c(N3CCCc4cc(Br)c(C(F)F)cc43)nn2C2CCN(C(=O)CN3Cc4cc5c(cc4C3)C(=O)N(C3CCC(=O)NC3=O)C5=O)CC2)C1` (configuration not stated), the figures for the DC50 in data set [6] and in [11] were 17 nM and 64 nM, respectively.

Take `CC(=O)N1CCc2c(c(N3CCCc4cc(-c5cnn(C)c5)c(C(F)F)cc43)nn2C2CCN(C(=O)CCN3Cc4cc5c(cc4C3)C(=O)N(C3CCC(=O)NC3=O)C5=O)CC2)C1` (configuration not stated): the DC50 in data set [6] and in data set [11] was above 1000 nM each time.

With `CNC(=O)c1ccc(N2C(=S)N(c3ccc(C#N)c(C(F)(F)F)c3)C(=O)C2(C)C)cc1F` [ENZALUTAMIDE], the IC50 in the data set on VCaP and in the data set with CWR22R was above 1000 nM each time.

Turning to `CC(=O)N1CCc2c(c(N3CCCc4cc(C5CCCCC5)c(C(F)F)cc43)nn2C2CCN(C(=O)CN3Cc4cc5c(cc4C3)C(=O)N(C3CCC(=O)NC3=O)C5=O)CC2)C1` (configuration not stated), the values for the DC50 in data set [6] and in data set [11] were 39 nM and 37 nM, respectively.

As for `CC(=O)N1CCc2c(c(N3CCCc4cc(-c5ccccc5)c(C(F)F)cc43)nn2C2CCN(C(=O)CN3Cc4cc5c(cc4C3)C(=O)N(C3CCC(=O)NC3=O)C5=O)CC2)C1` (configuration not stated), the DC50 in data set [6] is 23 nM; in data set [11] it was 31 nM.

Consider `CC(=O)N1CCc2c(c(N3CCCc4cc(-c5cccs5)c(C(F)F)cc43)nn2C2CCN(C(=O)CN3Cc4cc5c(cc4C3)C(=O)N(C3CCC(=O)NC3=O)C5=O)CC2)C1` (configuration not stated), for which the DC50 in [6] worked out at 33 nM; in [11], 24 nM.

With `CNC(=O)N1CCc2c(c(N3CCCc4cc(-c5cnn(C)c5)c(C(F)F)cc43)nn2C2CCOCC2)C1`, the Kd in data set [16] was determined as 4.6 nM; at CREB-binding protein it was 0.9 nM; in [17] it was 1.2 nM.

For `CC(=O)N1CCc2c(c(N3CCCc4cc(-c5cnn(C)c5)c(C(F)F)cc43)nn2C2CCN(CC(=O)N3Cc4cc5c(cc4C3)C(=O)N(C3CCC(=O)NC3=O)C5=O)CC2)C1` (configuration not stated), the DC50 in [6] and in data set [11] was above 1000 nM in each case.

Consider `CC(=O)N1CCc2c(c(N3CCCc4cc(C)c(C(F)F)cc43)nn2C2CCN(C(=O)CN3Cc4cc5c(cc4C3)C(=O)N(C3CCC(=O)NC3=O)C5=O)CC2)C1` (configuration not stated), for which the figures for the DC50 in data set [6] and in data set [11] were 9.6 nM and 55 nM, respectively.

For `CCc1cc2c(cc1C(F)F)N(c1nn(C3CCN(C(=O)CN4Cc5cc6c(cc5C4)C(=O)N(C4CCC(=O)NC4=O)C6=O)CC3)c3c1CN(C(C)=O)CC3)CCC2` (configuration not stated), the results for the DC50 in data set [6] and in data set [11] were 18 nM and 89 nM, respectively.

In the case of `CC(=O)N1CCc2c(c(N3CCCc4cc(-c5cnn(C)c5)c(C(F)F)cc43)nn2C2CCN(C(=O)CCCCN3Cc4cc5c(cc4C3)C(=O)N(C3CCC(=O)NC3=O)C5=O)CC2)C1` (configuration not stated), the 50% degradation concentration (DC50) is 46 nM in data set [6] and 168 nM in data set [11].

For `CC(=O)N1CCc2c(c(N3CCCc4cc(-c5cnn(C)c5)c(C(F)F)cc43)nn2C2CCN(C(=O)CCCN3Cc4cc5c(cc4C3)C(=O)N(C3CCC(=O)NC3=O)C5=O)CC2)C1` (configuration not stated), the figures for the DC50 in [6] and in [11] were 105 nM and 368 nM, respectively.

Molecule `CC(=O)N1CCc2c(c(N3CCCc4cc(-c5cnn(C)c5)c(C(F)F)cc43)nn2C2CCN(C(=O)CN3Cc4cc5c(cc4C3)C(=O)N(C3CCC(=O)NC3=O)C5=O)CC2)C1` (configuration not stated) yielded a concentration at 5 min in [1] of 3.7 ng/mL. Moreover, the distribution volume (Vdss) in data set [2] turned out to be 6.3 L/kg. The half-life in data set [3] is above 1 h; in data set [4] it was 0.163 h; in data set [15] it was 0.317 h. This molecule also yielded a concentration at 24 h in data set [18] of 4.6 ng/mL. The molecule further yielded an AUC(0-t) at 24 h in data set [8] of 166 ng·h/mL. Besides, in data set [12], the t1/2 is 1.3 h. The molecule further gave a concentration at 0.25 h in [13] of 1.9 ng/mL.

On to `CC(=O)N1CCc2c(c(N3CCCc4cc(C(C)C)c(C(F)F)cc43)nn2C2CCN(C(=O)CN3Cc4cc5c(cc4C3)C(=O)N(C3CCC(=O)NC3=O)C5=O)CC2)C1` (configuration not stated), for which the DC50 was determined as 40 nM in [6] and 57 nM in data set [11].

As for `N#Cc1ccc(O[C@H]2CC[C@H](NC(=O)c3ccc(N4CCC(CN5CCN(c6cc7c(cc6F)C(=O)N(C6CCC(=O)NC6=O)C7=O)CC5)CC4)nn3)CC2)cc1Cl` (some centres not stated) [BAVDEGALUTAMIDE], the concentration for half-maximal inhibition (IC50) in the data set on VCaP amounted to 125 nM.

Regarding `CC(=O)N1CCc2c(c(N3CCCc4cc(-c5cnn(C)c5)c(C(F)F)cc43)nn2C2CCOCC2)C1`, the Kd amounted to 200 nM in [16], 1.1 nM on CREB-binding protein and 1.3 nM in data set [17]. Moreover, the IC50 in the data set with VCaP, in the data set on LNCaP and in the data set with CWR22R was above 1000 nM in each case.

For `CC(=O)N1CCc2c(c(N3CCCc4cc(-c5cnn(C)c5)c(C(F)F)cc43)nn2C2CCN(C(=O)CCCCCN3Cc4cc5c(cc4C3)C(=O)N(C3CCC(=O)NC3=O)C5=O)CC2)C1` (configuration not stated), the DC50 in data set [6] is 108 nM; in [11], 362 nM.

Consider `CC(=O)N1CCc2c(c(N3CCCc4cc(-c5ccc(F)cc5)c(C(F)F)cc43)nn2C2CCN(C(=O)CN3Cc4cc5c(cc4C3)C(=O)N(C3CCC(=O)NC3=O)C5=O)CC2)C1` (configuration not stated), for which the DC50 in [6] amounted to 41 nM; in [11], 36 nM.
